In BindingDB's records for patent US12286435 (Bionna (Beijing) Medical Technology, 2025) one finds Ki data, which are given here for six compounds.

One may read the Ki as the equilibrium dissociation constant of an inhibitor or competing ligand from its target. The low end stands for tighter binding, the high end for weaker binding.

Assay [1] has as its target T1, Bromodomain-containing protein 4 [58-164] (Homo sapiens, UniProt O60885).
T1 construct: 58-164
The assay can be described thus: Determination of the value of binding affinity constant (KO between the compound and BRD4 BD1 protein. The procedure:
The multifunctional microplate reader was a product of TECAN, model: SPARK 10M. Buffer: 100 mM potassium phosphate (pH 6.5), 2% ethylene glycol (Sigma) and 0.01% Trition X-100 (Sigma). The experimental water was Millipore-Q pure water.The specific experimental steps were as follows.First, the compound to be tested was dissolved in ethylene glycol to prepare into a 10 mM standard stock solution. Subsequently, the standard stock solution of the compound to be tested was diluted into a working sample solution with the buffer in an EP tube and ready for use. The concentration of the prepared working sample solution was 5 times of the highest sample concentration required on the test plate (5×test compound solution).[…] of a 5× test compound solution of a sample A was added to wells B1-B3 of a 96-well plate, and 40 μL of a 5× test compound solution of a sample B was added to wells B7-B9 of the 96-well plate, respectively. 20 uL of the buffer was added to the remaining wells, except for wells B1-B3 and B7-B9. Then, 20 uL of a solution was taken from wells B1-B3 to C1-C3, and this 2-fold dilution was repeated from C1-C3 until H4-H6; in the same way, 20 uL of a solution was taken from B7-B9 to C7-C9, this 2-fold dilution was repeated from C7-C9 until H10-H12.

Assay [2] deals with T2, Bromodomain-containing protein 4 [348-457] (Human, UniProt O60885).
T2 construct: 348-457
The assay can be described thus: Determination of the value of binding affinity constant (KO between the compound and BRD4 BD2 protein. The procedure:
The multifunctional microplate reader was a product of TECAN, model: SPARK 10M. Buffer: 100 mM potassium phosphate (pH 6.5), 2% ethylene glycol (Sigma) and 0.01% Trition X-100 (Sigma). The experimental water was Millipore-Q pure water.The Ki value of the compound and BRD4 BD2 protein was measured according to the FP test procedures for detecting the Ki value of the compound and BRD4 BD1 protein except that the BRD4 BD1 protein was replaced with the BRD4 BD2 protein.

On to `CCCCN1CC=C(c2ccc3c(c2)C(Nc2cccc(Cl)c2)CCn2nnc(C)c2-3)CC1` (configuration not stated) [US12286435, Code BH108], for which the Ki in assay [1] came out at 0.451 µM; in assay [2], 0.0243 µM.

Consider `COC(=O)Cc1ccc(NC2CCn3nnc(C)c3-c3ccc(-c4cnn(C)c4)cc32)cc1` (configuration not stated) [US12286435, Code LB38], for which the Ki in assay [1] worked out at 0.0448 µM; in assay [2], 0.00929 µM.

In the case of `Cc1nnn2c1-c1ccc(-c3cnn(C)c3)cc1C(Nc1cccc(CCO)c1)CC2` (configuration not stated) [US12286435, Code LB71], the values for the Ki in assay [1] and in assay [2] were 0.0922 µM and 0.0305 µM, respectively.

For the compound `COC(=O)Cc1ccccc1NC1CCn2nncc2-c2ccc(-c3cnn(C)c3)cc21` (configuration not stated) [US12286435, Code LB175], the Ki in assay [1] is 0.0435 µM; in assay [2], 0.0186 µM.

On to `Cc1nnn2c1-c1ccc(C3=CCNCC3)cc1C(Nc1c(F)cccc1Cl)CC2` (configuration not stated) [US12286435, Code LC198], for which the Ki in assay [1] turned out to be 2.98 µM; in assay [2], 0.153 µM.

`Cc1nnn2c1-c1ccc(C3=CCOCC3)cc1C(Nc1cccc(Cl)c1)CC2` (configuration not stated) [US12286435, Code LD31]: the Ki in assay [1] is 0.0391 µM; in assay [2], 0.0171 µM.
